Data reported in patent EP4813988A1, “AI-DESIGNED BENZODIAZEPINE DERIVATIVE AND USE THEREOF” (Shenzhen Newrosetta Biosciences Co., Ltd, priority 2024, dated 2025).
Read-outs that look alike come from different tables or passages of the source.

Key:
Human M2 receptor = biological target: T1, Human M2 receptor (Homo sapiens, UniProt P08172); experiment: FLIPR Calcium 6 assay for inhibitory activity against Human M2 receptor in CHO cells; format: cell-based; conditions: for M3/M2 selectivity: IC50 ratio of M3/M2
T1 construct: expressed in transfected cells
T1 sequence (P08172 1-466): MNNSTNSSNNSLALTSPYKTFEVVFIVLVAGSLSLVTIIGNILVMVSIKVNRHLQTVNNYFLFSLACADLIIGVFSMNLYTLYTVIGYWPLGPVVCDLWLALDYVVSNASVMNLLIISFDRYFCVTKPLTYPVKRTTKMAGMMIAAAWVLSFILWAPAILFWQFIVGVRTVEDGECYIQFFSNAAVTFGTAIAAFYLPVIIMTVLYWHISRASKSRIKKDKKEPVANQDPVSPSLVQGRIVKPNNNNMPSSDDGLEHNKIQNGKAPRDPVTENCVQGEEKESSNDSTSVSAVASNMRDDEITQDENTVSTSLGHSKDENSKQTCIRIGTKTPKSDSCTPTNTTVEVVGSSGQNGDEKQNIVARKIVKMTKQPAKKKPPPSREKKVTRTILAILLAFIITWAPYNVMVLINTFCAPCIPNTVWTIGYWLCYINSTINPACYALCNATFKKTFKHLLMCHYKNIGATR
Protocol: (§1) CHO cell lines stably expressing Human M2 and Human M3, respectively, were used. The effects of the compounds on the activity of the Human M2 and Human M3 receptors were determined using the FLIPR Calcium 6 Assay Kit. The effects of the test substances on Human M2 and Human M3 were studied according to changes in cell signal intensity, and the corresponding concentration-response curves were calculated.
(§2) • 1. The Human M2-CHO and Human M3-CHO cell lines were cultured in an F-12 culture medium containing 10% fetal bovine serum (AusGeneX, FBS500-S) and 0.2 mg/mL Hygromycin B (Solarbio, H8080-1g) at a culture temperature of 37 °C with 5% carbon dioxide. • 2. Cell passage: The old culture medium was removed in a biosafety cabinet, and the cells were washed once with PBS; 1 mL of 0.25% Trypsin-EDTA (Gibco, 25200-072) solution was then added; and the cells were incubated at 37 °C for about 2 min. When the cells were detached from the bottom of the dish, about 5 mL of complete culture medium pre-heated at 37 °C was added. The cell suspension was gently pipetted to separate the aggregated cells. The cell suspension was transferred to a sterile centrifuge tube and centrifuged at 1000 rpm for 5 min. • 3. In order to maintain the physiological activity of the cells, the experimental cell confluence was controlled at about 80% as observed under an inverted microscope (Olympus, CKX53).
(§3) • 1. Cell plating: Human M2-CHO and Human M3-CHO cells were digested, collected, resuspended, counted, and then seeded into a 384-well cell plate (Corning, 3764) at a density of 1.2 × 10^4 cells/25 µL /well; the cell plate was then incubated in a 5% CO2 incubator at 37 °C for about 16-20 h. • 2. On day 2, an Assay Buffer (20 mM HEPES + 1× HBSS) was prepared according to the instructions of the FLIPR Calcium 6 Assay Kit (Molecular Devices, R8191); after 20× Component A was freeze-thawed to room temperature, it was diluted to 1× loading buffer with the Assay buffer, and placed at room temperature for later use. • 3. The culture medium in the cell plate was removed, 35 µL of the 1× loading buffer described above was quickly added to each well, and the cell plate was centrifuged using a microplate low speed centrifuge and then incubated in the dark at 37 °C for 120 min. • 4. The working solutions of a positive compound and the test compounds were each prepared in a 96-well dilution plate (Biao Sen, P-0.6-BSA-96-S); 5 µL of each solution was transferred to the corresponding cell wells; and the cell plate was incubated at 37 °C for 30 min in the dark. • 5. An agonist working solution was prepared and transferred to a 384-well compound plate (Corning, 264573) at 20 µL /well. • 6. The cell plate (Corning, 3764), the 384-well compound plate (Corning, 264573), and pipette tips were placed at corresponding positions of the FLIPR instrument; 10 µL of the agonist diluted in step 5 was added to each experimental well using the FLIPR® Penta; and data were collected at the wavelength of 515-575 nm. • 7. The signal values were plotted against the compound concentrations, and based on a non-linear regression method using the GraphPad Prism software, the curves were fit, and the IC50 values were calculated.
(§4) • 1) Z′ factor = 1−3 × (SDMax+SDMin)/(AVGMax−AVGMin) [formula] • 2) CV Max = (SDMax/AVGMax) × 100% [formula] • 3) CV Min = (SDMin/AVGMin) × 100% [formula] • 4) Signal−to−noise ratio S/B = AVGMax /AVGMin [formula] • 5) The IC50 values of the compounds were calculated using the GraphPad Prism non-linear fitting formula: Y = Bottom + (Top−Bottom)/(1+10^(∧)((LogIC50−X)×HillSlope)) [formula] • 6) % inhibition rate formula: [formula] • Ratiopositive: mean value of positive control. • Ratiovehicle: mean value of negative control (0.1% DMSO).
(§5) According to the experimental method described above, the inhibitory activity of the compounds disclosed herein against Human M2 and M3 receptors was assayed with AFDX-116 as a positive control compound. Table 3. […]

Human M3 receptor = biological target: T2, Human M3 receptor (Homo sapiens, UniProt P20309); experiment: FLIPR Calcium 6 assay for inhibitory activity against Human M3 receptor in CHO cells; format: cell-based; conditions: FLIPR calcium signal, antagonist mode
T2 construct: expressed in transfected cells
T2 sequence (P20309 whole entry): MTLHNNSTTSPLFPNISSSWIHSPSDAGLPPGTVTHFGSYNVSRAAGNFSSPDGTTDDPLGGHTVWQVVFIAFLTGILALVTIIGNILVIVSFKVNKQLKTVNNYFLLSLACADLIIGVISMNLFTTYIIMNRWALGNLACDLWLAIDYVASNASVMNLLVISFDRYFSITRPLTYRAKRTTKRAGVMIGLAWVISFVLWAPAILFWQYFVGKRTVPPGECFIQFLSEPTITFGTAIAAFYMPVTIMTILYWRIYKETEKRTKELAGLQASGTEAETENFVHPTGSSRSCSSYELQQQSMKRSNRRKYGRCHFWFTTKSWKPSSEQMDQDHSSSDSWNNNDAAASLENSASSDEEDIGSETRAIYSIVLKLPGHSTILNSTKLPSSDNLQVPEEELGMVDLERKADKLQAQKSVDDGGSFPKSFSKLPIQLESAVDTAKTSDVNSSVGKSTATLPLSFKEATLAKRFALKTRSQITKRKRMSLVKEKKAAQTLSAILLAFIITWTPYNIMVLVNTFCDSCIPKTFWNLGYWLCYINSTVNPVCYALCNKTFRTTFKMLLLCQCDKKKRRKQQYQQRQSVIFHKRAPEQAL
Protocol: as §1, §2, §3, §4, §5

guinea pig myopia model = experiment: In vivo efficacy evaluation in form-deprivation guinea pig myopia model (diopter by infrared photorefractor); conditions: 20 µL/eye once daily; for slowing down the progression of refraction decrease: 0.5 wt% eye drops, versus negative control group
Source text: Objective: To evaluate the inhibitory effect of compound 2 on the progression of myopia (refractive error) in a guinea pig myopia model. Young guinea pigs have inherent refractive hyperopia, which gradually progresses towards emmetropization during eye development. Form deprivation accelerates the process of emmetropization. In this test, the delaying effect of compound 2 on the process of refractive emmetropization in modeled young guinea pigs was investigated.
Sample preparation: 0.5 wt% compound 2 eye drops were formulated with compound 2 and a 10 wt% aqueous sulfobutylether-beta-cyclodextrin solution.
Grouping: The guinea pigs were evenly divided into 3 groups according to the refractive value of the right eye: a negative control group, a model control group, and a compound 2 group.
Modeling: Animals other than the negative control group were modeled. A myopia model was made by suturing the eyelid of the right eye. The modeling procedure is as follows: After hair removal was performed on the right eyes of all animals, the right eyes were sutured in a U-shape to achieve form deprivation and accelerate the process of emmetropization. The guinea pigs were fed for 28 days after the first suture.
Administration: Starting from the day of suture modeling, eye drops were administered to the right eyes of the animals in each group according to settings (the samples for administration are shown in Table 4) at 20 µL /eye once daily for 28 consecutive days. Table 4. Administration and dosage design for each group
Test: Diopter was measured on day 15 and day 29 after modeling using an infrared photorefractor (ST-PR.01, Striatech).

[1] = Human M2-CHO cells, FLIPR calcium signal, antagonist mode, read-out: M2 IC50

Row | IC50 (Human M2 receptor; [1]) [nM] | M3/M2 selectivity (Human M2 receptor) | IC50 (Human M3 receptor) [nM] | Structure (SMILES) | diopter (refractive value) (guinea pig myopia model; day 15, 0.5 wt% compound 2 eye drops, right eye, form deprivation by eyelid suture) | slowing down the progression of refraction decrease (guinea pig myopia model; day 15 of administration) | slowing down the progression of refraction decrease (guinea pig myopia model; day 29 of administration) | IC50 (Human M2 receptor) [nM]
1 | 0.863 | 838 | 723 | CCN(CCN(C)C12CC3CC(CC(C3)C1)C2)C(=O)CCC(=O)N1c2ccccc2C(=O)Nc2cccnc21 [Compound 6] |  |  |  | 
2 | 1.86 | 149 | 277 | CCN(CCN(C)C1CCC2(CCCC2)C1)C(=O)CCC(=O)N1c2ccccc2C(=O)Nc2cccnc21 (stereo not drawn) [Compound 11] |  |  |  | 
3 | 2.58 | 762 | 1970 | CCN(CCN(C)C1CC2(CCCCC2)C1)C(=O)CCC(=O)N1c2ccccc2C(=O)Nc2cccnc21 [Compound 10] |  |  |  | 
4 | 5.46 | 47.6 | 260 | CCN(CCN(C)C1C2CCCC21)C(=O)CCC(=O)N1c2ccccc2C(=O)Nc2cccnc21 (stereo not drawn) [Compound 13] |  |  |  | 
5 | 1.82 | 101 | 184 | CCN(CCN(C)C1CC2CCCC2C1)C(=O)CCC(=O)N1c2ccccc2C(=O)Nc2cccnc21 (stereo not drawn) [Compound 12] |  |  |  | 
6 | 1.49 | 88.6 | 132 | CCN(CCN(C)CC12CCC(CC1)C2)C(=O)CCC(=O)N1c2ccccc2C(=O)Nc2cccnc21 [Compound 4] |  |  |  | 
7 | 0.733 | 76 | 55.9 | CCN(CCN1CCC2(CCCCC2)CC1)C(=O)CCC(=O)N1c2ccccc2C(=O)Nc2cccnc21 [Compound 2] | increase in the positive refractive value | superior to the negative control group | comparable to the negative control group | 
8 | 0.896 | 157.7 | 141 | CCN(CCN1CCC2(CCC2)CC1)C(=O)CCC(=O)N1c2ccccc2C(=O)Nc2cccnc21 [Compound 8] |  |  |  | 
9 | 3.23 | 189 | 611 | CCN(CCN(C)C1CCC2(CCCCC2)CC1)C(=O)CCC(=O)N1c2ccccc2C(=O)Nc2cccnc21 [Compound 1] |  |  |  | 
10 | 6.54 | 1041 | 6820 | CCN(CCN(C)CC1CCC2(CCCCC2)CC1)C(=O)CCC(=O)N1c2ccccc2C(=O)Nc2cccnc21 [Compound 3] |  |  |  | 
11 | 0.833 | 394.1 | 328 | O=C1Nc2cccnc2N(C(=O)CCC(=O)N2CCCCC2CN2CCC3(CCCCC3)CC2)c2ccccc21 (stereo not drawn) [Compound 14] |  |  |  | 
12 | 166 | 12 | 2100 | CCN(CC)CC1CCCCN1CC(=O)N1c2ccccc2C(=O)Nc2cccnc21 (stereo not drawn) [AFDX-116, reference compound] |  |  |  | 
13 | 1.14 | 217.6 | 247 | O=C1Nc2cccnc2N(C(=O)CCC(=O)N2CCCC2CN2CCC3(CCCCC3)CC2)c2ccccc21 (stereo not drawn) [Compound 15] |  |  |  | 
14 | 0.714 | 75.87 | 54.1 | CCN(CCN1CC2CC2C1)C(=O)CCC(=O)N1c2ccccc2C(=O)Nc2cccnc21 (stereo not drawn) [Compound 7] |  |  |  | 
15 | 2.98 | 295.7 | 881 | CCN(CCN(C)C1CC2(CCC2)C1)C(=O)CCC(=O)N1c2ccccc2C(=O)Nc2cccnc21 [Compound 9] |  |  |  | 

Row | Structure (SMILES) | IC50 (Human M2 receptor; [1]) [nM] | M3/M2 selectivity (Human M2 receptor) | IC50 (Human M3 receptor) [nM] | diopter (refractive value) (guinea pig myopia model; day 15, 0.5 wt% compound 2 eye drops, right eye, form deprivation by eyelid suture) | slowing down the progression of refraction decrease (guinea pig myopia model; day 15 of administration) | slowing down the progression of refraction decrease (guinea pig myopia model; day 29 of administration) | IC50 (Human M2 receptor) [nM]
16 | CCN(CCN1C2CCCC1CC2)C(=O)CCC(=O)N1c2ccccc2C(=O)Nc2cccnc21 [Compound 5] |  | 245.6 | 673 |  |  |  | 2.74
